Earlier results as cited in patent US20070149443A1, “Methods of treating obesity using enterostatin” (priority 2005, published 2007).

Details: administered orally to humans; literature report

enterostatin
did not affect: body weight | energy expenditure | food intake
